System: HCT116 colorectal cancer cells
Assay: Cisplatin sensitization assay (96 h cell viability MTS);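 further: compound concentration needed to lower the Cisplatin-alone IC50 by a set fold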
Type: cell-based
Details: 96 h MTS, compound plus Cisplatin
Method in brief: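 HCT116 cells were co-treated with compound and cisplatin, each in 2-fold serial dilutions from a 10 μM top final concentration, as a full matrix. After 96 h at 37 °C, 5% CO2, viability was read by MTS following a 1 h incubation with reagent.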

**Q.** With `CC(C)(C)N1CCN(c2ccncc2NC(=O)c2c(N)nn3cc(Cl)cnc23)CC1` [I-N-34, 2-amino-N-(4-(4-(tert-butyl)piperazin-1-yl)pyridin-3-yl)-6-chloropyrazolo[1,5-a]pyrimidine-3-carboxamide] as the compound, how does the “Cisplatin Sensitization Assay” value read?
**A.** ++ (Compounds with a Cisplatin sensitization value >0.02 μM but <0.2 μM are marked with “++.”)

**Q.** For `CN(C)[C@H]1CCN(c2ccncc2NC(=O)c2c(N)nn3cc(Cl)cnc23)C[C@@H]1O` [I-N-35, 2-amino-6-chloro-N-(4-((3S,4S)-4-(dimethylamino)-3-hydroxypiperidin-1-yl)pyridin-3-yl)pyrazolo[1,5-a]pyrimidine-3-carboxamide], which “Cisplatin Sensitization Assay” value is on record?
**A.** + (Compounds with a Cisplatin sensitization value >0.2 μM but <5 μM are marked with “+.”)

**Q.** Which “Cisplatin Sensitization Assay” value does the source give for `CN(C)CC1(O)CCN(c2ccncc2NC(=O)c2c(N)nn3cc(Cl)cnc23)CC1` [I-N-36, 2-amino-6-chloro-N-(4-(4-((dimethylamino)methyl)-4-hydroxypiperidin-1-yl)pyridin-3-yl)pyrazolo[1,5-a]pyrimidine-3-carboxamide] here?
**A.** ++ (Compounds with a Cisplatin sensitization value >0.02 μM but <0.2 μM are marked with “++.”)

**Q.** How did the “Cisplatin Sensitization Assay” value turn out when `CN(C)C1CCN(c2ccncc2NC(=O)c2c(N)nn3cc(Cl)cnc23)CC1` [I-N-37, 2-amino-6-chloro-N-(4-(4-(dimethylamino)piperidin-1-yl)pyridin-3-yl)pyrazolo[1,5-a]pyrimidine-3-carboxamide] was run?
**A.** ++ (Compounds with a Cisplatin sensitization value >0.02 μM but <0.2 μM are marked with “++.”)

**Q.** `Nc1nn2cc(F)cnc2c1C(=O)Nc1cncc(Cl)c1N1CCN2CCN(C3COC3)CC2C1` (stereo not shown) [I-N-38, 2-amino-N-(5-chloro-4-(8-(oxetan-3-yl)hexahydro-1H-pyrazino[1,2-a]pyrazin-2(6H)-yl)pyridin-3-yl)-6-fluoropyrazolo[1,5-a]pyrimidine-3-carboxamide] was tested. Which “Cisplatin Sensitization Assay” value did it give?
**A.** ++ (Compounds with a Cisplatin sensitization value >0.02 μM but <0.2 μM are marked with “++.”)

**Q.** `CC(C)N1CCN(c2ccncc2NC(=O)c2c(N)nn3cc(Cl)cnc23)CC1` [I-N-39, 2-amino-6-chloro-N-(4-(4-isopropylpiperazin-1-yl)pyridin-3-yl)pyrazolo[1,5-a]pyrimidine-3-carboxamide] was tested. Which “Cisplatin Sensitization Assay” value did it give?
**A.** ++ (Compounds with a Cisplatin sensitization value >0.02 μM but <0.2 μM are marked with “++.”)

**Q.** `CN(C)C1CCCN(c2ccncc2NC(=O)c2c(N)nn3cc(Cl)cnc23)C1` (stereo not shown) [I-N-40, 2-amino-6-chloro-N-(4-(3-(dimethylamino)piperidin-1-yl)pyridin-3-yl)pyrazolo[1,5-a]pyrimidine-3-carboxamide] was tested. Which “Cisplatin Sensitization Assay” value did it give?
**A.** ++ (Compounds with a Cisplatin sensitization value >0.02 μM but <0.2 μM are marked with “++.”)

**Q.** `CN1CCN(c2c(Cl)cncc2NC(=O)c2c(N)nn3cc(Cl)cnc23)CC1` [I-N-41, 2-amino-6-chloro-N-(5-chloro-4-(4-methylpiperazin-1-yl)pyridin-3-yl)pyrazolo[1,5-a]pyrimidine-3-carboxamide] was tested. Which “Cisplatin Sensitization Assay” value did it give?
**A.** +++ (Compounds with a Cisplatin sensitization value of <0.02 μM are marked with “+++.”)

**Q.** How did the “Cisplatin Sensitization Assay” value turn out when `CN1CCCN(c2ccncc2NC(=O)c2c(N)nn3cc(Cl)cnc23)CC1` [I-N-43, 2-amino-6-chloro-N-(4-(4-methyl-1,4-diazepan-1-yl)pyridin-3-yl)pyrazolo[1,5-a]pyrimidine-3-carboxamide] was run?
**A.** ++ (Compounds with a Cisplatin sensitization value >0.02 μM but <0.2 μM are marked with “++.”)

**Q.** For `Nc1nn2cc(Cl)cnc2c1C(=O)Nc1cnccc1N1CCn2ccnc2C1` [I-N-44, 2-amino-6-chloro-N-(4-(5,6-dihydroimidazo[1,2-a]pyrazin-7(8H)-yl)pyridin-3-yl)pyrazolo[1,5-a]pyrimidine-3-carboxamide], which “Cisplatin Sensitization Assay” value is on record?
**A.** ++ (Compounds with a Cisplatin sensitization value >0.02 μM but <0.2 μM are marked with “++.”)
